Measured values taken from PMC6650409, “Modeling the binding of diverse ligands within the Ah receptor ligand binding domain” (Scientific Reports, 2019).
Residue numbers refer to the chain shown, from its start. Read-outs that look alike come from different tables or passages of the source.

How the values were obtained:
S359A mutant AhR = molecular target: T1, S359A mutant AhR (Mus musculus, UniProt P30561, S359A); test: [3H]TCDD competitive ligand binding, S359A mutant AhR; conditions: for IC50: Table S6, AhR mutant S359A
T1 construct: made in house; host or cells: in vitro, Promega TNT Quick rabbit reticulocyte lysate
T1 sequence (P30561 10-848 S359A): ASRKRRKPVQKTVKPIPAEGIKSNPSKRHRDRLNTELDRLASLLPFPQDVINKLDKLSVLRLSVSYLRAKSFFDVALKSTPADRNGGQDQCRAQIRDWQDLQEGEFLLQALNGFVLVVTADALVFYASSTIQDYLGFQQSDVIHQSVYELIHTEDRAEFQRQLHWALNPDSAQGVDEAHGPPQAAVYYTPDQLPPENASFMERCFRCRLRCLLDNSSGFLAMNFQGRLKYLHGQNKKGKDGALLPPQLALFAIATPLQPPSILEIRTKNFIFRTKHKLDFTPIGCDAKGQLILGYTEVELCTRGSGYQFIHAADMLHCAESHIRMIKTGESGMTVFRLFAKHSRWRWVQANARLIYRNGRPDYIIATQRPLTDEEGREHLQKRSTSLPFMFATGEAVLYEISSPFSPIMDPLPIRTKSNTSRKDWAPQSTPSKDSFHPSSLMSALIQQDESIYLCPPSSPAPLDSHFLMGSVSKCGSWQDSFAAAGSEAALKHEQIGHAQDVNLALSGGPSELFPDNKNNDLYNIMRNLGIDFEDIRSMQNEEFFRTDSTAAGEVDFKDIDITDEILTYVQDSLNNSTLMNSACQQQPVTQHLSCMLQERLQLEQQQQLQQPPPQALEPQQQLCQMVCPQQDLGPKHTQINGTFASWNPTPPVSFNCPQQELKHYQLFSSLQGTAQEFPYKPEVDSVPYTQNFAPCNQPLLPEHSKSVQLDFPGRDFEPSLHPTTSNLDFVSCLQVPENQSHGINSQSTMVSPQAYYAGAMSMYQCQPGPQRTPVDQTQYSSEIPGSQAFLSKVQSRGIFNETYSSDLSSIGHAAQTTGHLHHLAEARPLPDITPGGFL
Method: (§1) The mouse AhR (mAhR) and ARNT (mARNT) expression plasmids, mβAhR/pcDNA3 and mβArnt/pcDNA3, have been previously described. Point mutations of mβAhR/pcDNA3 were carried out using the QuikChange Lightning Mutagenesis Kit (Agilent Technologies) and all constructs were verified by sequencing.
(§2) [^3H]TCDD specific binding to wild-type or mutant mAhRs synthesized in vitro using the Promega TNT Quick coupled transcription/translation rabbit reticulocyte lysate kit (Madison, WI) was carried out as previously described. [^3H]TCDD specific binding was determined by subtracting the amount of [^3H]TCDD bound to unprogrammed lysate (nonspecific binding) from the total amount of [^3H]TCDD binding to lysate containing in vitro expressed AhR. The amount of [^3H]TCDD specific binding remaining in the presence of the indicated competitor chemical was expressed as a percent of the total [^3H]TCDD specific binding. The relative binding affinity (IC50) of each chemical was determined from concentration-dependent competitive inhibition curves obtained using [^3H]TCDD and increasing concentrations of each test chemical and the mean IC50 value was determined using three-parameter non-linear regression.

C327A mutant AhR = molecular target: T2, C327A mutant AhR (Mus musculus, UniProt P30561, C327A); test: [3H]TCDD competitive ligand binding, C327A mutant AhR; conditions: for change of relative binding affinity versus wild-type AhR: C327A mutation, in words; for IC50: Table S6, AhR mutant C327A
T2 construct: made in house; host or cells: in vitro, Promega TNT Quick rabbit reticulocyte lysate
T2 sequence (P30561 10-848 C327A): T1 sequence (P30561 10-848 S359A) with C318A, A350S
Method: as §1, §2

Compound	IC50 (S359A mutant AhR)	change of relative binding affinity versus wild-type AhR (C327A mutant AhR)	IC50 (C327A mutant AhR; read-out: IC50)	IC50 (C327A mutant AhR; read-out: -LogIC50 (converted))	change of relative binding affinity versus wild-type AhR (S359A mutant AhR; S359A substitution, in words)
O=c1cc(-c2ccccc2)oc2ccc3ccccc3c12 [BNF]	47.1 nM	significantly decreased	40.5 nM		
c1ccc2c(c1)ccc1cc3c(ccc4ccccc43)cc12 [DBA, dibenz(a,h)anthracene]		no significant effect	14.6 nM	14.8 nM	
O=Cc1c2[nH]c3ccccc3c2cc2[nH]c3ccccc3c12 [FICZ, 6-formylindolo[3,2-b]carbazole]	4.1 nM	no significant effect	4.32 nM		decreased binding
